In ChEMBL document CHEMBL3808365, “Potent and Selective CK2 Kinase Inhibitors with Effects on Wnt Pathway Signaling in Vivo” (ACS Med Chem Lett, 2016):
Values after ≈ are worked out from the molar mass of the structure shown.

Columns and labels:
[1] = Intrinsic clearance in rat hepatocyte assessed per 10^6 cells; format: ADME, cell-based; conditions: hepatocytes, read-out: CLH
[2] = biological target: Casein kinase II subunit alpha (Homo sapiens, UniProt P68400); assay: Inhibition of full length N-terminal 6xHis-tagged recombinant human CK2alpha expressed in fall armyworm Sf21 cells using BODIPY-FL-RRRDDDSDDD-CONH2 as substrate after 90 mins by mobility shift assay
[3] = Aqueous solubility of the compound in phosphate buffer at pH 7.4 incubated for 24 hrs by LC/MS/MS method; format: physicochemical
[4] = Fraction unbound in human plasma at 10 uM by equilibrium dialysis method; format: ADME, cell-free
Casein kinase II = Casein kinase II (Homo sapiens, UniProt P19784+P67870+P68400); assay: Inhibition of CK2 in human DLD1 HA-myr-AKT1 cells assessed as suppression of AKTser129 phosphorylation after 3 to 24 hrs by Western blot analysis
[5] = Inhibition of CK2 in mouse L-Wnt3a cells assessed as suppression of Wnt3a-mediated L S/L Super TOPFlash reporter gene transcription after 24 hrs; conditions: L Wnt-3A
[6] = Intrinsic clearance in human liver microsomes; format: ADME; conditions: read-out: CLH
[7] = Antiproliferative activity against human SW620 cells after 72 hrs by alamar blue assay; format: functional; conditions: SW-620, 72 h
[8] = Antiproliferative activity against human DLD1 cells after 72 hrs by alamar blue assay; format: functional; conditions: DLD-1, 72 h
[9] = Antiproliferative activity against human […] cells after 72 hrs by alamar blue assay; format: functional; conditions: HCT-116, 72 h

Chain of Casein kinase II subunit alpha (P68400 whole entry): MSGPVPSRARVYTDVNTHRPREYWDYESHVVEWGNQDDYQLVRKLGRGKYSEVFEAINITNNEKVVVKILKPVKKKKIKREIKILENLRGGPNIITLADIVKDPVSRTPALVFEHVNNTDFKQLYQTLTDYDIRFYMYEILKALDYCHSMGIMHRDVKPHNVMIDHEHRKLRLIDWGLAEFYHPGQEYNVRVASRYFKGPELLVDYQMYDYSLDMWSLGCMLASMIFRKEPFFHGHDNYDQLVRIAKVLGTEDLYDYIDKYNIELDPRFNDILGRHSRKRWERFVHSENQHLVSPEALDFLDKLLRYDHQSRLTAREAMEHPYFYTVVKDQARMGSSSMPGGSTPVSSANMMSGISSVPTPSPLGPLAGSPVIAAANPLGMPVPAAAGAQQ
Chain of Casein kinase II (P67870 whole entry): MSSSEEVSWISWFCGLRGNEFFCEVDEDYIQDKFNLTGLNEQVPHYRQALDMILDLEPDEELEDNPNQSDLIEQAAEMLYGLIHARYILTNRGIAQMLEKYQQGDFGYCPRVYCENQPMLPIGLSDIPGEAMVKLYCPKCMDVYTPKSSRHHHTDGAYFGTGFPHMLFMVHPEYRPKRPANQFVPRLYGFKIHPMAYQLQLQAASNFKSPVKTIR
Chain of Casein kinase II (P68400 whole entry): as the sequence (P68400 whole entry) above
Chain of Casein kinase II (P19784 whole entry): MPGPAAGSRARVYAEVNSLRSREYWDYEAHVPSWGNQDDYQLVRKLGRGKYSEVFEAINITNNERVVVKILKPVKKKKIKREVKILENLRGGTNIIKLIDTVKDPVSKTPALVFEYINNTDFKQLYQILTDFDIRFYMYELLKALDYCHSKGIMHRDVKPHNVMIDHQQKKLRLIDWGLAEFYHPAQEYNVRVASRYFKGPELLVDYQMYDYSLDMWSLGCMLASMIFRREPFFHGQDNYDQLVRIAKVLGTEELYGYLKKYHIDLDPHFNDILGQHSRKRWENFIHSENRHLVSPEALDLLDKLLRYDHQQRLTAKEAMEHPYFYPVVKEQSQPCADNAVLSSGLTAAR

| Structure (SMILES) | hepatocyte CLint [1] | IC50 [2] | solubility at 24 h [3] | fraction unbound at 10 µM [4] | IC50 (Casein kinase II) | IC50 [5] | microsomal CLint [6] | GI50 [7] | GI50 [8] | GI50 [9] |
| --- | --- | --- | --- | --- | --- | --- | --- | --- | --- | --- |
| CC(=O)Nc1cc(Nc2cc(NC3CC3)n3ncc(C#N)c3n2)ccc1N(C)C[C@H](C)N | < 1 µL/min/1e6 cells | < 3 nM | 895 µM (≈ 388 µg/mL) | 0.36 | 4 nM | 670 nM | < 3 µL/min/mg | – | – | – |
| CC(=O)Nc1cc(Nc2cc(NC3CC3)n3ncc(C#N)c3n2)ccc1N1CC[C@H](N(C)C)C1 | 2.5 µL/min/1e6 cells | – | > 800 µM | 0.29 | – | 380 nM | 9 µL/min/mg | – | – | – |
| CCN(CC)CCN(C)c1ccc(Nc2cc(NC3CC3)n3ncc(C#N)c3n2)cc1NC(C)=O | 27 µL/min/1e6 cells | – | > 1000 µM | 0.23 | – | 390 nM | 44 µL/min/mg | – | – | – |
| CC(=O)Nc1cc(Nc2cc(NC3CC3)n3ncc(C#N)c3n2)ccc1N1CCC[C@@H](N(C)C)C1 | < 1 µL/min/1e6 cells | – | > 900 µM | 0.11 | – | 510 nM | 19 µL/min/mg | – | – | – |

Continued, in another order:

| hepatocyte CLint [1] | IC50 [2] | solubility at 24 h [3] | fraction unbound at 10 µM [4] | IC50 (Casein kinase II) | IC50 [5] | microsomal CLint [6] | Structure (SMILES) | GI50 [7] | GI50 [8] | GI50 [9] |
| --- | --- | --- | --- | --- | --- | --- | --- | --- | --- | --- |
| – | – | 241 µM (≈ 119 µg/mL) | 0.02 | – | 760 nM | – | CC(=O)Nc1cc(Nc2cc(NC3CC3)n3ncc(C#N)c3n2)ccc1N(C)CCN1CC(F)(F)C1 | – | – | – |
| < 1 µL/min/1e6 cells | – | 704 µM (≈ 314 µg/mL) | 0.22 | – | 180 nM | < 3 µL/min/mg | CC(=O)Nc1cc(Nc2cc(NC3CC3)n3ncc(C#N)c3n2)ccc1N1CCC[C@H](N)C1 | – | – | – |
| 15 µL/min/1e6 cells | – | > 1000 µM | 0.22 | – | 730 nM | < 4 µL/min/mg | CC(=O)Nc1cc(Nc2cc(NC3CC3)n3ncc(C#N)c3n2)ccc1N(C)CCCN(C)C | – | – | – |
| 2.5 µL/min/1e6 cells | < 3 nM | 812 µM (≈ 350 µg/mL) | 0.32 | 70 nM | 960 nM | < 3 µL/min/mg | CC(=O)Nc1cc(Nc2cc(NC3CC3)n3ncc(C#N)c3n2)ccc1N1CC[C@@H](N)C1 | – | – | – |
| 5 µL/min/1e6 cells | – | – | 0.1 | – | – | 10 µL/min/mg | CC(=O)Nc1cc(Nc2cc(NC3CC3)n3ncc(C#N)c3n2)ccc1C | 100 nM | 170 nM | 80 nM |
